Data from PubChem BioAssay AID1963864 (Molecular Pharmacology Branch, DTP, NCI, 2024).

System: KRAS PDC multicell spheroid viability
Test: Anticancer human tumor 521955-158-R6-J3-PDC patient-derived pancreatic carcinoma cell line growth inhibition [KRAS2]
Settings: for viability, T/C: stronger effect = lower value
From the text: Multicellular complex tumor spheroid response to RAS pathway inhibitors in combination with a targeted agents in patient-derived cell lines with oncogenic KRAS variants from multiple cancer types
A high-throughput screen of multi-cell type tumor spheroids was designed to identify active combinations of targeted small molecules and KRAS pathway inhibitors. Complex spheroids include a stromal component modeled by human endothelial cells (HUVEC) and fibroblasts modeled by human mesenchymal stem cells (MSCs). The concentration ranges selected for each drug and investigational agent were based upon clinically achievable concentrations if the clinical Cmax of the agent was known.
Compounds. The drugs and investigational agents: BI-3406 (NSC825286), BAY-293 (NSC824723), batoprotafib (TNO155; NSC825523), sotorasib (AMG 510; NSC818433), MRTX1257 (NSC819558), elimusertib (BAY 1895344; NSC800525), molibresib (GSK525762; NSC774829), temuterkib (LY3214996; NSC803410), venetoclax (NSC766270), alisertib (NSC759677), olaparib (NSC753686), talazoparib (NSC767125), erdafitinib (NSC781556), ipatasertib (NSC767898), cabozantinib (NSC761068), nintedanib (NSC756659), abemaciclib (NSC768073), docetaxel (NSC628503), trametinib (NSC758246), and sapanisertib (NSC764658) were obtained from the National Cancer Institute (NCI) Developmental Therapeutics Program Chemical Repository. The FDA-approved anticancer drug set is available from the Developmental Therapeutics Program. […] The stock solutions were prepared in dimethyl sulfoxide (DMSO, Sigma-Aldrich, St. Louis, MO, cat. D2650) at 800-fold the tested concentration and stored at -70 degrees C prior to their use. All drugs and investigational agents were tested over a range starting from a high concentration at or near the clinical Cmax and decreasing in half-log increments. If the clinical Cmax for an agent had not been determined, the highest concentration tested was 10 microM.
Cell Culture. All cells were maintained in an incubator at 37 degrees C and 5% CO2 with 95% humidity. The PDC lines were cultured according to standard operating procedures established by the NCI PDMR (https://pdmr.cancer.gov/sops/default.htm). Briefly, all PDCs were thawed and cultured in Matrigel-coated flasks prepared with a working solution of 1X Ham's F-12 nutrient mix, without supplementation (Invitrogen, Waltham, MA, cat. 11765054), 100 U/mL penicillin-streptomycin (Invitrogen, cat. 15140122), and 2.5% Matrigel (Corning Inc., Corning, NY, cat. 354248) for the first three passages. All PDCs were cultured in complete DMEM/F-12 media containing advanced DMEM/F-12 (Invitrogen, cat. 12634028), 4.9% defined fetal bovine serum, heat inactivated (HyClone Laboratories Inc., Logan, UT, cat. SH30070.03HI), 389 ng/mL hydrocortisone (Sigma-Aldrich, cat. H4001), 9.7 ng/mL human EGF recombinant protein (Invitrogen, cat. PHG0313), 23.4 microg/mL adenine (Sigma-Aldrich, cat. A2786), 97.3 U/mL penicillin-streptomycin (Invitrogen, cat. 15140122), 1.9 mM L-glutamine (Invitrogen, cat. 25030081), and 9.7 microM Y-27632 dihydrochloride (Tocris Bioscience, Bristol, United Kingdom, cat. 1254). The PDCs were cultured in complete DMEM/F12 media without 9.7 microM Y-27632 dihydrochloride for at least two passages prior to the screen. The established cell line HOP-62 was cultured in RPMI 1640 medium, HEPES (Invitrogen, cat. 22400105) with 10% defined fetal bovine serum (HyClone Laboratories Inc., cat. SH30070.03) and 2 mM L-glutamine (Invitrogen, cat. 25030081). The pooled donor HUVEC were cultured in endothelial cell growth medium 2 (PromoCell, Heidelberg, Germany, cat. C-22011) and the hMSC were cultured in mesenchymal stem cell growth medium 2 (PromoCell, cat. C-28009). For all experiments, HUVEC and hMSC were used at passages </=5, while the malignant cell lines were used at passages </=15. […]

[1] = curve of first compound, second compound 0.1 µM
[2] = curve of first compound, second compound 0.316 µM
[3] = curve of first compound, second compound 1 µM
[4] = curve of first compound, second compound 3.16 µM
[5] = curve of first compound, second compound 10 µM
[6] = second compound 0.1 µM, first compound 0.0316 µM
[7] = second compound 0.1 µM, first compound 0.1 µM
[8] = second compound 0.1 µM, first compound 0.316 µM
[9] = second compound 0.1 µM, first compound 1 µM
[10] = second compound 0.1 µM, first compound 3.16 µM
[11] = second compound 0.1 µM, first compound 10 µM
[12] = second compound 0.316 µM, first compound 0.0316 µM
[13] = second compound 0.316 µM, first compound 0.1 µM
[14] = second compound 0.316 µM, first compound 0.316 µM
[15] = second compound 0.316 µM, first compound 1 µM
[16] = second compound 0.316 µM, first compound 3.16 µM
[17] = second compound 0.316 µM, first compound 10 µM
[18] = second compound 1 µM, first compound 0.0316 µM
[19] = second compound 1 µM, first compound 0.1 µM
[20] = second compound 1 µM, first compound 0.316 µM
[21] = second compound 1 µM, first compound 1 µM
[22] = second compound 1 µM, first compound 3.16 µM
[23] = second compound 1 µM, first compound 10 µM
[24] = second compound 3.16 µM, first compound 0.0316 µM
[25] = second compound 3.16 µM, first compound 0.1 µM
[26] = second compound 3.16 µM, first compound 0.316 µM
[27] = second compound 3.16 µM, first compound 1 µM
[28] = second compound 3.16 µM, first compound 3.16 µM
[29] = second compound 3.16 µM, first compound 10 µM
[30] = second compound 10 µM, first compound 0.0316 µM
[31] = second compound 10 µM, first compound 0.1 µM
[32] = second compound 10 µM, first compound 0.316 µM
[33] = second compound 10 µM, first compound 1 µM
[34] = second compound 10 µM, first compound 3.16 µM
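Also: drug exposure lasted seven days.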
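For viability, T/C in this document: 100% = DMSO vehicle wells and lower means fewer viable cells.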

Compound | IC50 [1] | IC50 [2] | IC50 [3] | IC50 [4] | viability, T/C [6] | viability, T/C [7] | viability, T/C [8] | viability, T/C [9] | viability, T/C [10] | viability, T/C [12] | viability, T/C [13] | viability, T/C [14] | viability, T/C [15] | viability, T/C [16] | viability, T/C [18] | viability, T/C [19] | viability, T/C [20] | viability, T/C [21] | viability, T/C [22] | viability, T/C [24] | further results
CC(C)NCC(C(=O)N1CCN(c2ncnc3c2C(C)CC3O)CC1)c1ccc(Cl)cc1 (configuration not stated) + C=CC(=O)N1CCN(c2nc(=O)n(-c3c(C)ccnc3C(C)C)c3nc(-c4c(O)cccc4F)c(F)cc23)C(C)C1 | > 10 µM | > 10 µM | > 10 µM | > 10 µM | 90.8% | 90.4% | 74.5% | 76.2% | 79.5% | 94.4% | 89% | 72.5% | 81.3% | 79.8% | 93.5% | 83.4% | 75.8% | 69.7% | 66.9% | 85.7% | IC50 [5]: 0.683 µM; viability, T/C [11]: 65.7%; viability, T/C [17]: 58.6%; viability, T/C [23]: 65.5%; viability, T/C [25]: 72%; viability, T/C [26]: 66.5%; viability, T/C [27]: 64.9%; viability, T/C [28]: 57.4%; viability, T/C [29]: 57.4%; viability, T/C [30]: 75.3%; viability, T/C [31]: 63.2%; viability, T/C [32]: 54.6%; viability, T/C [33]: 43.3%; viability, T/C [34]: 50.3%; viability, T/C (second compound 10 µM, first compound 10 µM): 43.7%
CC1(C)CCC(CN2CCN(c3ccc(C(=O)NS(=O)(=O)c4ccc(NCC5CCOCC5)c([N+](=O)[O-])c4)c(Oc4cnc5[nH]ccc5c4)c3)CC2)=C(c2ccc(Cl)cc2)C1 + C=CC(=O)N1CCN(c2nc(OCC3CCCN3C)nc3c2CCN(c2cccc4cccc(C)c24)C3)CC1CC#N | 4.48 µM | 2.68 µM | 1.92 µM | < 0.0316 µM | 93.5% | 97.3% | 90.6% | 91.9% | 64.2% | 92% | 95.8% | 101% | 97.2% | 42.1% | 82.4% | 78.2% | 80.1% | 76.9% | 29.4% | 45.2% | IC50 (curve of first compound, second compound 0.0316 µM): 3.86 µM; viability, T/C (second compound 0.0316 µM, first compound 0.0316 µM): 104%; viability, T/C (second compound 0.0316 µM, first compound 0.1 µM): 97.5%; viability, T/C (second compound 0.0316 µM, first compound 0.316 µM): 95.6%; viability, T/C (second compound 0.0316 µM, first compound 1 µM): 92.7%; viability, T/C (second compound 0.0316 µM, first compound 3.16 µM): 57.3%; viability, T/C (second compound 0.0316 µM, first compound 10 µM): 14.4%; viability, T/C [11]: 17%; viability, T/C [17]: 15.4%; viability, T/C [23]: 6.62%; viability, T/C [25]: 48.4%; viability, T/C [26]: 24.2%; viability, T/C [27]: 8.37%; viability, T/C [28]: 0.18%; viability, T/C [29]: 0.23%
CC1COCCN1c1cc(-c2ccnn2C)c2ccnc(-c3ccn[nH]3)c2n1 (configuration not stated) + C=CC(=O)N1CCN(c2nc(=O)n(-c3c(C)ccnc3C(C)C)c3nc(-c4c(O)cccc4F)c(F)cc23)C(C)C1 | > 3.16 µM | > 3.16 µM | > 3.16 µM | > 3.16 µM | 91% | 76.7% | 77.9% | 73% | 82.7% | 98.4% | 87.8% | 95.1% | 88% | 91.9% | 111% | 96% | 84.5% | 79.6% | 91.9% | 96.9% | IC50 [5]: > 3.16 µM; viability, T/C (second compound 0.1 µM, first compound 0.01 µM): 97.3%; viability, T/C (second compound 0.316 µM, first compound 0.01 µM): 95%; viability, T/C (second compound 1 µM, first compound 0.01 µM): 91.7%; viability, T/C (second compound 3.16 µM, first compound 0.01 µM): 88.4%; viability, T/C [25]: 88.4%; viability, T/C [26]: 79.3%; viability, T/C [27]: 69.4%; viability, T/C [28]: 82.2%; viability, T/C (second compound 10 µM, first compound 0.01 µM): 77.6%; viability, T/C [30]: 69.5%; viability, T/C [31]: 71%; viability, T/C [32]: 57.2%; viability, T/C [33]: 67.2%; viability, T/C [34]: 66.9%
CN(C)C/C=C/C(=O)Nc1cc2c(Nc3ccc(F)c(Cl)c3)ncnc2cc1O[C@H]1CCOC1 | – | – | – | – | – | – | – | – | – | – | – | – | – | – | – | – | – | – | – | – | viability, T/C (compound 0.000316 µM): 93.6% [middle of 5 runs]; viability, T/C (compound 0.001 µM): 82.4% [middle of 5 runs]; viability, T/C (compound 0.00316 µM): 81.6% [middle of 5 runs]; viability, T/C (compound 0.01 µM): 68.3% [middle of 5 runs]; viability, T/C (compound 0.0316 µM): 62.6% [middle of 5 runs]; viability, T/C (compound 0.1 µM): 63.5% [middle of 5 runs]; IC50 (curve of compound): > 0.1 µM
